Assay [1] concerns the target PI3Kβ (Homo sapiens (Human), UniProt P42338). The assay can be described thus: Homogeneous Time Resolved Fluorescence (HTRF) lipid kinase assay. To be noted: HTRF format, 10 μM ATP. Format: biochemical. The protocol:
(§1) The ability of the compounds of the present invention to inhibit the activity of four PI3K isoforms, PI3Kα, PI3Kβ, PI3Kγ, and PI3Kδ, were determined using a commercially available lipid kinase assay run in Homogeneous Time Resolved Fluorescence (HTRF) format.
(§2) Assay principle: The PIP3 product is detected by displacement of biotin-PIP3 from an energy transfer complex consisting of Europium labeled anti-GST monoclonal antibody, a GST-tagged pleckstrin homology (PH) domain, biotinylated PIP3 and Streptavidin-Allophycocyanin (APC). Excitation of Europium in the complex results in an energy transfer to the APC and a fluorescent emission at 665 nm. The PIP3 product formed by PI 3-Kinase(h) activity displaces biotin-PIP3 from the complex resulting in a loss of energy transfer and thus a decrease in signal.
(§3) This is a 3-step reaction: First, the kinase reaction with PIP2 substrate is carried out in the presence of ATP, and the reaction is quenched with stop Solution, and then finally detect by adding Detection Mixture followed by incubation.
(§4) Assay Buffer: HEPES 50 mM (pH7.0), NaN3 0.02%, BSA 0.01%, Orthovanadate 0.1 mM, 1% DMSO.
(§5) Detection buffer: HEPES 10 mM (pH7.0), BSA 0.02%, KF 0.16 M, EDTA 4 mM.
(§6) Substrate: […] PIP2 substrate (PI(4,5)P2)
(§7) ATP: 10 μM ATP under standard conditions
(§8) Control Inhibitor: PI-103
(§9) • 1. Prepare substrate in freshly prepared Reaction Buffer • 2. Deliver kinase into the substrate solution and gently mix • 3. Deliver compounds in 100% DMSO into the kinase reaction mixture by Acoustic technology (Echo550; nanolitter range), incubate for 10 min at room temp • 4. Deliver ATP into the reaction mixture to initiate the reaction • 5. Incubate for 30 min at 30° C. • 6. Quench the reaction with Stop Solution. • 7. Add Detection Mixture, and incubate for overnight. • 8. Measure HTRF: Ex=320 nm, ratio of Em=615 nm and Em=665 nm. Data Analysis:
(§10) The emission ratio is converted into μM PIP3 production based on PIP3 standard curves. The nonlinear regression to obtain the standard curve and IC50 values are performed using Graphpad Prism software.
(Time-resolved FRET reads energy transfer from a long-lived donor to a nearby acceptor.)

Assay [2] deals with PI3Kδ (Homo sapiens (Human), UniProt O00329). The description is as above. Format: biochemical. To be noted: HTRF format, 10 μM ATP. The protocol: as §1, §2, §3, §4, §5, §6, §7, §8, §9, §10
PI3Kδ, sequence (O00329 whole entry): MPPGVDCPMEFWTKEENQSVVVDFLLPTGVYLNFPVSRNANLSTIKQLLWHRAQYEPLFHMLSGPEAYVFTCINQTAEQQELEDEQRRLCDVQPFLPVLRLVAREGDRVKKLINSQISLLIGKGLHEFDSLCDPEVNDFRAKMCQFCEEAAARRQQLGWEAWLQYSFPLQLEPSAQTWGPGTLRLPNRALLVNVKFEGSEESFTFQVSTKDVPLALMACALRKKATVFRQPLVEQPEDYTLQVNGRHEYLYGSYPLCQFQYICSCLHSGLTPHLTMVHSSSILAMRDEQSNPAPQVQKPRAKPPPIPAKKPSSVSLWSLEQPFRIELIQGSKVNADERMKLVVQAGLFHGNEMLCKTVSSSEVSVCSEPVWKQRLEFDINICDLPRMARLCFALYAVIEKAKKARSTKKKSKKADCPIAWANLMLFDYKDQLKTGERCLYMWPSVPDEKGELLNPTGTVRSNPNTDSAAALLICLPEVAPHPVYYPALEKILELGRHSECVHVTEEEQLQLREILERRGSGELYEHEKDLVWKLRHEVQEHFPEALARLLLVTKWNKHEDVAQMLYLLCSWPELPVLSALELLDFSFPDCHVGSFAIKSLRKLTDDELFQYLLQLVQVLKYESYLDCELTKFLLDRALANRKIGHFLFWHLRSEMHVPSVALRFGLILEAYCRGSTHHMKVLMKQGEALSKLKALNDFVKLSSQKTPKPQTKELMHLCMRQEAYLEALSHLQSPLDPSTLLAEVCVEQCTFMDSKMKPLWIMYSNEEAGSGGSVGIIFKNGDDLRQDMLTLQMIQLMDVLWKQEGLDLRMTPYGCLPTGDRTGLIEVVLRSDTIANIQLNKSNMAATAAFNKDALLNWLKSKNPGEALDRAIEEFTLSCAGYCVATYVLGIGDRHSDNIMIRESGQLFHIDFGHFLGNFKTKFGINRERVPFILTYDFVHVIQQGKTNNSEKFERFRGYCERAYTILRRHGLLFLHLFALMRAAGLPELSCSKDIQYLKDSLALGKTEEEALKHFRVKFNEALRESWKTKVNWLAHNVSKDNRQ
PI3Kδ, sequence (P27986 whole entry partner): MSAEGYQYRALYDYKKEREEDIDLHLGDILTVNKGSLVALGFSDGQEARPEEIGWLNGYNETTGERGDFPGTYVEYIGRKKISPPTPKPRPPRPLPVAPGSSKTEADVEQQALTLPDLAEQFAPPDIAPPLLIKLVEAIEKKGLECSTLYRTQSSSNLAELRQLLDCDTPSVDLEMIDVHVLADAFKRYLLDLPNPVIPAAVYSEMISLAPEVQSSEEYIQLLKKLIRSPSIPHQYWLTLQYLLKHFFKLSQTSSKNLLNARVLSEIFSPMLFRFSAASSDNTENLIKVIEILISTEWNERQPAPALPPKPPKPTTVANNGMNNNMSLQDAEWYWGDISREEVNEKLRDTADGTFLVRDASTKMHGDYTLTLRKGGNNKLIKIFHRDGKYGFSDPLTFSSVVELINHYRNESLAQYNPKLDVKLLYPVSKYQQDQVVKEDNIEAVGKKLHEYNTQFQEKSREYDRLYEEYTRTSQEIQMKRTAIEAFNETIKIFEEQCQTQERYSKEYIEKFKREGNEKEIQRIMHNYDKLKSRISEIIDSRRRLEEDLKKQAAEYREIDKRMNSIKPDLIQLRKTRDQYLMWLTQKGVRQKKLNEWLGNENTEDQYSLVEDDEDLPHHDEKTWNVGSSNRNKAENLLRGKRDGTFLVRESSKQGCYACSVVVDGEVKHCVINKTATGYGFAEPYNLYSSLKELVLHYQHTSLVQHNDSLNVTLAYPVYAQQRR
The target in assay [3] is PI3Kα (Homo sapiens (Human), UniProt P42336). The assay is described as above. Format: biochemical. To be noted: HTRF format, 10 μM ATP. The protocol: as §1, §2, §3, §4, §5, §6, §7, §8, §9, §10
PI3Kα, sequence (P42336 whole entry): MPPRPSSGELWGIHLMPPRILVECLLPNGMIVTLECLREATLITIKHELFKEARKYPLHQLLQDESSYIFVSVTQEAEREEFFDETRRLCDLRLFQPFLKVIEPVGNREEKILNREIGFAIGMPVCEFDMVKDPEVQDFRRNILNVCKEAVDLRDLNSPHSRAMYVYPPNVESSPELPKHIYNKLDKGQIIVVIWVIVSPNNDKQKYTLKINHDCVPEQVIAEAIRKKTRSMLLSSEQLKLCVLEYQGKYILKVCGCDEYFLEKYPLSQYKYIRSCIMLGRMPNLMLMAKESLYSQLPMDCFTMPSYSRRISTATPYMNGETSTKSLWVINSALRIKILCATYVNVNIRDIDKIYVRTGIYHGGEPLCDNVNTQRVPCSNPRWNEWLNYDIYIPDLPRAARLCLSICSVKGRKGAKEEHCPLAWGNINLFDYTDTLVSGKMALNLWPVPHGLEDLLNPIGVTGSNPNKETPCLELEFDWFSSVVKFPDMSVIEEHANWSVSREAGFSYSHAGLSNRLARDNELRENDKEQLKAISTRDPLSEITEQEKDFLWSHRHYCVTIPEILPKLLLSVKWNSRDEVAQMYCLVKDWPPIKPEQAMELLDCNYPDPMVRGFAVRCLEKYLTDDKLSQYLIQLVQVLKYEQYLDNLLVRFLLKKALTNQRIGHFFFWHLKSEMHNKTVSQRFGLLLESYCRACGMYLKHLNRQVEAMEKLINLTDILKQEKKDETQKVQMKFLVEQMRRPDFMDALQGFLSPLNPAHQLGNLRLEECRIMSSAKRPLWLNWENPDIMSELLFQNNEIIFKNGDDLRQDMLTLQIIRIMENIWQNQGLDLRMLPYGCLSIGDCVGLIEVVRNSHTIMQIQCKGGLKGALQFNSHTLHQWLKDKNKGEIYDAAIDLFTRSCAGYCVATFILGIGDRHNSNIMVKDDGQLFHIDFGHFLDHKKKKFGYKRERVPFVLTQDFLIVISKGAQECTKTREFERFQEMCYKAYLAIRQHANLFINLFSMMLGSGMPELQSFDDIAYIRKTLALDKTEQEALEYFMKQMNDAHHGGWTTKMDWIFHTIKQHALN
PI3Kα, sequence (P27986 whole entry partner): as the sequence (P27986 whole entry partner) above
For assay [4], the target named is PI3Kγ (Homo sapiens (Human), UniProt P48736). Described as above. Format: biochemical. To be noted: HTRF format, 10 μM ATP. The protocol:
as §1, §2, §3, §4, §5, §6, §7, §8, §9, §10

Assay [5] addresses PI3Kβ human (1-1070) (Homo sapiens (Human), UniProt P42338). The assay can be described thus: Reporter displacement assay. Format: binding. The protocol:
(§11) The ability of the compounds of the present invention to inhibit the activity of four PI3K isoforms, PI3Kα, PI3Kβ, PI3Kγ, and PI3Kδ, were determined using the commercially available reporter displacement assay that is based on reporter probes that are designed to bind to the site of interest of the target protein. The proximity between reporter and protein results in the emission of an optical signal. Compounds that bind to the same site as the reporter probe displace the probe, causing signal diminution. Reporter displacement is measured over time after addition of compounds at various concentrations. The assay conditions were:
(§12) Assay plates: 384 well U bottom, PP, black, low volume (Corning, 3676)
(§13) Full probe displacement: absence of enzyme and compound
(§14) Full probe binding: absence of compound
(§15) Reaction buffer: 20 mM Mops, pH 7.01 mM DTT, 0.01% Tween 20

For assay [6], the target named is PI3Kδ human fl (Homo sapiens (Human), UniProt O00329). The assay can be described thus: Reporter displacement assay. Format: binding. The protocol:
as §11, §12, §13, §14, §15

Assay [7] addresses PI3Kα human fl (Homo sapiens (Human), UniProt P42336). As to the kind of experiment: Reporter displacement assay. Format: binding. The protocol:
as §11, §12, §13, §14, §15

For assay [8], the target named is PI3Kγ human (144-1102) (Homo sapiens (Human), UniProt P48736). The assay can be described thus: Reporter displacement assay. Format: binding. The protocol: as §11, §12, §13, §14, §15

PI3Kγ, sequence (P48736 whole entry): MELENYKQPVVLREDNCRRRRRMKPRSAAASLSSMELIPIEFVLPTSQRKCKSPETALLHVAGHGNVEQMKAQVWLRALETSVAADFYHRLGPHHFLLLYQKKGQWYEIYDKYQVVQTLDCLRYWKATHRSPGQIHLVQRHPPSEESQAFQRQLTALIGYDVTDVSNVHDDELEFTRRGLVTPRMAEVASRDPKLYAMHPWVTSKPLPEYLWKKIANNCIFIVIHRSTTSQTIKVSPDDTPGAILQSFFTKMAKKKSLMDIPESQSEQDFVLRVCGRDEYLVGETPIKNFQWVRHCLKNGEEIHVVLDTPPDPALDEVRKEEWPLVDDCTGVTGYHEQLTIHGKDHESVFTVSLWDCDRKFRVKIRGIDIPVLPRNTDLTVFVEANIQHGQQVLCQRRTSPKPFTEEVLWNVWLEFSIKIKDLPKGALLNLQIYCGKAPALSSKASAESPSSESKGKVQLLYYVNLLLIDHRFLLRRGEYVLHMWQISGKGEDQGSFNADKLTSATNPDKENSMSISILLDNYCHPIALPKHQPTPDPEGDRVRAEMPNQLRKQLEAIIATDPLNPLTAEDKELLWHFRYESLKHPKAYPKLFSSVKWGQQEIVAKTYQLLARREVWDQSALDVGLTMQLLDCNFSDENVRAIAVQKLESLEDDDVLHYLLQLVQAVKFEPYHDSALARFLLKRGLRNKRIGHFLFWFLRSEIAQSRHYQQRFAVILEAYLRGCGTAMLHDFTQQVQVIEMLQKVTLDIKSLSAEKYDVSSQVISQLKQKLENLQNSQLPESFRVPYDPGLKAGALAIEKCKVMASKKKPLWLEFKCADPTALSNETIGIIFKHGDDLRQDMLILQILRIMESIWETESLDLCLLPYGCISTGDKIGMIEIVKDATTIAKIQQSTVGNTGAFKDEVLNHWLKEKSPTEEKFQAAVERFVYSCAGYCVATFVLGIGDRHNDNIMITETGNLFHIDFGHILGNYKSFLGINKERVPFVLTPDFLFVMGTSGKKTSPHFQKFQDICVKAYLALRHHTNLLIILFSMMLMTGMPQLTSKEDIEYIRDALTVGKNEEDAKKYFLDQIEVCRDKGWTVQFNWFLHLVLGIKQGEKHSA
PI3Kβ, sequence (P42338 whole entry, canonical isoform): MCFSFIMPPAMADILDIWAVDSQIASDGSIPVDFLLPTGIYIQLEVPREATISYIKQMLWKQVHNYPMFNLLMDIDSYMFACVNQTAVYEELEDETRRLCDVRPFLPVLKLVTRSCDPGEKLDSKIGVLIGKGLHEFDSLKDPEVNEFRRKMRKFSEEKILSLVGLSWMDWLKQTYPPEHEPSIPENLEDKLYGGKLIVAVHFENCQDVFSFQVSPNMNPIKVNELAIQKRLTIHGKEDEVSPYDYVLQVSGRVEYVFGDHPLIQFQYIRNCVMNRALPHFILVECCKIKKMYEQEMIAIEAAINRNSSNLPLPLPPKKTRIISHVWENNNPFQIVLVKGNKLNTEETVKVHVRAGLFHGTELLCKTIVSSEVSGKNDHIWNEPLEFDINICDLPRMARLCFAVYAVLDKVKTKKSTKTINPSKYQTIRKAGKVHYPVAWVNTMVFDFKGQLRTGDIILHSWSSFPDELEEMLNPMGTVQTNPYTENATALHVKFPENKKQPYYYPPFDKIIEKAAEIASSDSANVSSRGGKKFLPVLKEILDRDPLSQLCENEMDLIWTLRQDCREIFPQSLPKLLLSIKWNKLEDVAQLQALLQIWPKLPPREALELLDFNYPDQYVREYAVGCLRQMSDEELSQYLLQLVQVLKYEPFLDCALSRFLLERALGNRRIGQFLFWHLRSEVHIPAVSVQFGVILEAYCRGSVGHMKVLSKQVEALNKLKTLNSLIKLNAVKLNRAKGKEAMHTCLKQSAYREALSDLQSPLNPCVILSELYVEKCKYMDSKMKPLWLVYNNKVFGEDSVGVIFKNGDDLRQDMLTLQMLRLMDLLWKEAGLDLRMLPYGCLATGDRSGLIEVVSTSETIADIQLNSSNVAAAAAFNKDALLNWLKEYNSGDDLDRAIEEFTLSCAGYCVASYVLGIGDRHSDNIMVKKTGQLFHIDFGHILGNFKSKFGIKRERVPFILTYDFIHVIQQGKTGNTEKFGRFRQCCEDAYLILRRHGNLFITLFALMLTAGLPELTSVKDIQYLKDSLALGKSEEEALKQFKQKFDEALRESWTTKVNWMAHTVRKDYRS
PI3Kβ, sequence (P27986 whole entry partner, canonical isoform): as the sequence (P27986 whole entry partner) above

As for `CC[C@H](Nc1ncnc2[nH]ccc12)c1nc2cccc(F)c2c(=O)n1-c1ccccc1` [Compound 1A, (S)-2-(1-((7H-pyrrolo[2,3-d]pyrimidin-4-yl)amino)propyl)-5-fluoro-3-phenylquinazolin-4(3H)-one], the half-maximal inhibitory concentration (IC50) (in general, the point on the concentration scale where inhibition reaches its midpoint) in assay [1] is 650 nM; in assay [2], 8 nM; in assay [3], 3700 nM; in assay [4], 1200 nM.
Regarding `O=c1c2c(F)cccc2nc([C@H](CC(F)(F)F)Nc2ncnc3[nH]cnc23)n1-c1ccccc1` [Compound 2A, (S)-2-(1-((9H-purin-6-yl)amino)-3,3,3-trifluoropropyl)-5-fluoro-3-phenylquinazolin-4(3H)-one], the results for the IC50 in assay [1], in assay [2] and in assay [4] were 3900 nM, 80 nM and 1800 nM, respectively.
In the case of `CC[C@H](Nc1ncnc2[nH]cnc12)c1nc2cccc(F)c2c(=O)n1-c1cccc(CC(F)(F)F)c1` [Compound 6A, (S)-2-(1-((9H-purin-6-yl)amino)propyl)-5-fluoro-3-(3-(2,2,2-trifluoroethyl)phenyl)quinazolin-4(3H)-one], the IC50 stood at 3100 nM in assay [1], 20 nM in assay [2], 15000 nM in assay [3] and 300 nM in assay [4].
For `CC[C@H](Nc1ncnc2[nH]ccc12)c1nc2cccc(F)c2c(=O)n1-c1cccc(CC(F)(F)F)c1` [Compound 7A, (S)-2-(1-((7H-pyrrolo[2,3-d]pyrimidin-4-yl)amino)propyl)-5-fluoro-3-(3-(2,2,2-trifluoroethyl)phenyl)quinazolin-4(3H)-one] the same measures were 5800 nM, 50 nM, 28000 nM and 1300 nM.
With `CC[C@H](Nc1ncnc2[nH]cnc12)c1nc2cccc(F)c2c(=O)n1-c1cccc(OCC(F)(F)F)c1` [Compound 10A, (S)-2-(1-((9H-purin-6-yl)amino)propyl)-5-fluoro-3-(3-(2,2,2-trifluoroethoxy)phenyl)quinazolin-4(3H)-one], the IC50 in assay [2] turned out to be 20 nM; in assay [4] it was 740 nM.
Turning to `CC[C@H](Nc1ncnc2[nH]ccc12)c1nc2cccc(F)c2c(=O)n1-c1cccc(OCC(F)(F)F)c1` [Compound 11A, (S)-2-(1-((7H-pyrrolo[2,3-d]pyrimidin-4-yl)amino)propyl)-5-fluoro-3-(3-(2,2,2-trifluoroethoxy)phenyl)quinazolin-4(3H)-one], the IC50 in assay [2] was 110 nM; in assay [3] it was 115000 nM; in assay [4], 3000 nM.
Take `C[C@H](Nc1ncnc2[nH]ccc12)c1nc2cccc(F)c2c(=O)n1-c1ccc(OCC(F)(F)F)cc1` [Compound 15A, (S)-2-(1-((7H-pyrrolo[2,3-d]pyrimidin-4-yl)amino)ethyl)-5-fluoro-3-(4-(2,2,2-trifluoroethoxy)phenyl)quinazolin-4(3H)-one]: the IC50 in assay [1] was 7300 nM; in assay [2], 9 nM; in assay [3] it was 9700 nM; in assay [4] it was 740 nM.
With `CC[C@H](Nc1ncnc2[nH]ccc12)c1nc2cccc(F)c2c(=O)n1-c1ccc(OCC(F)(F)F)cc1` [Compound 16A, (S)-2-(1-((7H-pyrrolo[2,3-d]pyrimidin-4-yl)amino)propyl)-5-fluoro-3-(4-(2,2,2-trifluoroethoxy)phenyl)quinazolin-4(3H)-one], the half-maximal inhibitory concentration (IC50) in assay [1] worked out at 10500 nM; in assay [2], 90 nM; in assay [4], 5400 nM.
As for `C[C@H](Nc1ncnc2[nH]cc(F)c12)c1nc2cccc(F)c2c(=O)n1-c1cccc(OCC(F)(F)F)c1` [Compound 17A, (S)-5-fluoro-2-(1-((5-fluoro-7H-pyrrolo[2,3-d]pyrimidin-4-yl)amino)ethyl)-3-(3-(2,2,2-trifluoroethoxy)phenyl)quinazolin-4(3H)-one], the IC50 was found to be 3400 nM in assay [1], 8 nM in assay [2], 10000 nM in assay [3] and 1200 nM in assay [4].
For `C[C@H](Nc1ncnc2[nH]ccc12)c1nc2cccc(F)c2c(=O)n1-c1cccc(OCC(F)(F)C(F)(F)F)c1` [Compound 19A, (S)-2-(1-((7H-pyrrolo[2,3-d]pyrimidin-4-yl)amino)ethyl)-5-fluoro-3-(3-(2,2,3,3,3-pentafluoropropoxy)phenyl)quinazolin-4(3H)-one] the same measures were more than 10000 nM, 190 nM, more than 10000 nM and 4500 nM.
For `C[C@H](Nc1ncnc2[nH]ccc12)c1nc2cccc(Cl)c2c(=O)n1-c1cccc(OCC(F)(F)F)c1` [Compound 20A, (S)-2-(1-((7H-pyrrolo[2,3-d]pyrimidin-4-yl)amino)ethyl)-5-chloro-3-(3-(2,2,2-trifluoroethoxy)phenyl)quinazolin-4(3H)-one] the same measures were 1100 nM, 10 nM, 4100 nM and 460 nM.
For the molecule `O=c1c2c(F)cccc2nc(CNc2ncnc3[nH]ccc23)n1-c1cccc(OCC(F)(F)F)c1` [Compound 21A, 2-(((7H-pyrrolo[2,3-d]pyrimidin-4-yl)amino)methyl)-5-fluoro-3-(3-(2,2,2-trifluoroethoxy)phenyl)quinazolin-4(3H)-one], the half-inhibitory concentration (IC50) in assay [1] was more than 10000 nM; in assay [2], 2100 nM.
Regarding `C[C@H](Nc1ncnc2[nH]ccc12)c1nc2cccc(F)c2c(=O)n1-c1cccc(OCC(F)F)c1` [Compound 22A, (S)-2-(1-((7H-pyrrolo[2,3-d]pyrimidin-4-yl)amino)ethyl)-3-(3-(2,2-difluoroethoxy)phenyl)-5-fluoroquinazolin-4(3H)-one], the IC50 in assay [5] is 2100 nM; in assay [6], 20 nM; in assay [7], 9800 nM; in assay [8] it was 1200 nM.

(Values after US9216985B2, “3-aryl-2-((arylamino)methyl)quinazolin-4-(3H)-ones” (SciFluor Life Sciences, Inc., priority 2013, dated 2015).)
